Results reported in patent US20250250230A1, “HETEROCYCLIC COMPOUND” (TAKEDA PHARMACEUTICAL COMPANY LIMITED, priority 2022, published 2025).

The compounds below were run against T1, human orexin type 2 receptor (Homo sapiens, UniProt O43614) (assay: Measurement of orexin type 2 receptor agonist activity (calcium fluorescence, Fluo-4 AM, FDSS)). Settings: test compound 3 μM; CHO cells expressing human OX2 receptor; DMSO = 0%, orexin A (human) = 100%.
T1 construct: expressed in transfected cells
T1 sequence (O43614 1-444): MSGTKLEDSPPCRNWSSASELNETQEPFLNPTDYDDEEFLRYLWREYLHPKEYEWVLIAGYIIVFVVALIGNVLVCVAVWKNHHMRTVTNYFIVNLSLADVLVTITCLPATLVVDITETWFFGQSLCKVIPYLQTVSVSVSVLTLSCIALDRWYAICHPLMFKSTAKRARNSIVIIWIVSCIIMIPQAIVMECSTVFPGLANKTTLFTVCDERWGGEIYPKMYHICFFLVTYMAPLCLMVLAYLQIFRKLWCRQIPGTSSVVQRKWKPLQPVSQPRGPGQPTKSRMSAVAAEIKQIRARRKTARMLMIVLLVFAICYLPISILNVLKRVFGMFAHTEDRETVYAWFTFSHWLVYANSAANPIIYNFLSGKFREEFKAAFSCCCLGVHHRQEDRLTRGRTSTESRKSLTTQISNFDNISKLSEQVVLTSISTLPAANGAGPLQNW
Format: cell-based
Summary of the method: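 Agonist response scaled between vehicle (0%) and human orexin A at 10 nM final (100%), from 2-min kinetic Fluo-4 fluorescence reads. Stable hOX2R CHO-K1 clone, dye-loaded in HBSS/20 mM HEPES/0.1% BSA with 1.25 mM probenecid before compound addition.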

SMILES	OX2R agonist activity (3 μM, %) [%]
CS(=O)(=O)N[C@H]1CCN(C(=O)C2CC2c2c(-c3c(F)cccc3F)csc2F)C1 (stereo partly drawn) [Example 368, N-[(3S)-1-{(1R,2R)-2-[4-(2,6-difluorophenyl)-2-fluorothiophen-3-yl]cyclopropane-1-carbonyl}pyrrolidin-3-yl]methanesulfonamide, or N-[(3S)-1-{(1S,2S)-2-[4-(2,6-difluorophenyl)-2-fluorothiophen-3-yl]cyclopropane-1-carbonyl}pyrrolidin-3-yl]methanesulfonamide]	97
C[C@@H]1CN(C(=O)[C@@H]2C[C@@]2(F)c2ccc(F)cc2-c2c(F)cccc2F)[C@@H]1CNS(C)(=O)=O [Example 386, N-({(2S,3R)-1-[(1S,2S)-2-fluoro-2-(2′,5,6′-trifluoro[1,1′-biphenyl]-2-yl)cyclopropane-1-carbonyl]-3-methylazetidin-2-yl}methyl)methanesulfonamide]	98
CC1C(C(=O)N2CC[C@H](NS(C)(=O)=O)C2)C1c1ccccc1-c1c(F)cccc1F (mixture of isomers) [Example 303, a mixture of N-{(3S)-1-[(1R,2R,3S)-2-(2′,6′-difluoro[1,1′-biphenyl]-2-yl)-3-methylcyclopropane-1-carbonyl]pyrrolidin-3-yl}methanesulfonamide and N-{(3S)-1-[(1S,2S,3R)-2-(2′,6′-difluoro[1,1′-biphenyl]-2-yl)-3-methylcyclopropane-1-carbonyl]pyrrolidin-3-yl}methanesulfonamide]	99
C[C@H]1C[C@H](NS(=O)(=O)N(C)C)CN1C(=O)[C@@H]1C[C@H]1c1ccccc1-c1c(F)cccc1F [Example 281, N′-{(3S,5S)-1-[(1R,2R)-2-(2′,6′-difluoro[1,1′-biphenyl]-2-yl)cyclopropane-1-carbonyl]-5-methylpyrrolidin-3-yl}-N,N-dimethylsulfuric diamide]	96
C[C@]1(NS(C)(=O)=O)CCN(C(=O)[C@@H]2C[C@H]2c2ccccc2-c2c(F)cccc2F)C1 (mixture of isomers) [Example 286, a mixture of N-{(3R)-1-[(1R,2R)-2-(2′,6′-difluoro[1,1′-biphenyl]-2-yl)cyclopropane-1-carbonyl]-3-methylpyrrolidin-3-yl}methanesulfonamide and N-{(3S)-1-[(1R,2R)-2-(2′,6′-difluoro[1,1′-biphenyl]-2-yl)cyclopropane-1-carbonyl]-3-methylpyrrolidin-3-yl}methanesulfonamide]	96
CN(C)S(=O)(=O)NCC1CCN1C(=O)C1CC1c1ccccc1-c1c(F)cccc1F (racemic) [Example 204, a mixture of rac-N′-({(2R)-1-[(1R,2R)-2-(2′,6′-difluoro[1,1′-biphenyl]-2-yl)cyclopropane-1-carbonyl]azetidin-2-yl}methyl)-N,N-dimethylsulfuric diamide and rac-N′-({(2S)-1-[(1R,2R)-2-(2′,6′-difluoro[1,1′-biphenyl]-2-yl)cyclopropane-1-carbonyl]azetidin-2-yl}methyl)-N,N-dimethysulfuric diamide]	96
O=C(C1CC1c1ccccc1-c1c(F)cccc1F)N1CCC1CNS(=O)(=O)C1CC1 (racemic) [Example 205, a mixture of rac-N-({(2R)-1-[(1R,2R)-2-(2′,6′-difluoro[1,1′-biphenyl]-2-yl)cyclopropane-1-carbonyl]azetidin-2-yl}methyl)cyclopropanesulfonamide and rac-N-({(2S)-1-[(1R,2R)-2-(2′,6′-difluoro[1,1′-biphenyl]-2-yl)cyclopropane-1-carbonyl]azetidin-2-yl}methyl)cyclopropanesulfonamide]	78
CS(=O)(=O)NC1CCN(C(=O)C2CC2c2cscc2-c2c(F)cccc2F)C1 (racemic) [Example 321, a mixture of rac-N-[(3R)-1-{(1R,2R)-2-[4-(2,6-difluorophenyl)thiophen-3-yl]cyclopropane-1-carbonyl}pyrrolidin-3-yl]methanesulfonamide and rac-N-[(3R)-1-{(1R,2R)-2-[4-(2,6-difluorophenyl)thiophen-3-yl]cyclopropane-1-carbonyl}pyrrolidin-3-yl]methanesulfonamide]	95
CN(C)S(=O)(=O)N[C@H]1CCN(C(=O)[C@@H]2C[C@H]2c2c(F)cccc2-c2c(F)cccc2F)C1 [Example 309, N,N-dimethyl-N′-{(3S)-1-[(1R,2R)-2-(2′,3,6′-trifluoro[1,1′-biphenyl]-2-yl)cyclopropane-1-carbonyl]pyrrolidin-3-yl}sulfuric diamide]	97
CS(=O)(=O)NC[C@H]1CCN1C(=O)[C@@H]1C[C@H]1c1ccccc1-c1c(F)cccc1F [Example 370, N-({(2R)-1-[(1R,2R)-2-(2′,6′-difluoro[1,1′-biphenyl]-2-yl)cyclopropane-1-carbonyl]azetidin-2-yl}methyl)methanesulfonamide]	84

Now from value to compound:

OX2R agonist activity (3 μM, %) [%]	SMILES
95	Cc1ccc(C2CC2C(=O)N2CCC(NS(C)(=O)=O)C2)c(-c2ccccc2F)c1 (racemic) [Example 209, a mixture of rac-N-{(3R)-1-[(1R,2R)-2-(2′-fluoro-5-methyl[1,1′-biphenyl]-2-yl)cyclopropane-1-carbonyl]pyrrolidin-3-yl}methanesulfonamide and rac-N-{(3S)-1-[(1R,2R)-2-(2′-fluoro-5-methyl[1,1′-biphenyl]-2-yl)cyclopropane-1-carbonyl]pyrrolidin-3-yl}methanesulfonamide]
83	CC1CN(C(=O)C2CC2c2ccccc2-c2c(F)cccc2F)CCCC1NS(C)(=O)=O (racemic) [Example 217]
104	CS(=O)(=O)N[C@H]1CCCN(C(=O)C2CC2(F)c2ccccc2-c2c(F)cccc2F)C1 (mixture of isomers) [Example 199, a mixture of N-{(3S)-1-[(1R,2R)-2-(2′,6′-difluoro[1,1′-biphenyl]-2-yl)-2-fluorocyclopropane-1-carbonyl]piperidin-3-yl}methanesulfonamide and N-{(3S)-1-[(1S,2S)-2-(2′,6′-difluoro[1,1′-biphenyl]-2-yl)-2-fluorocyclopropane-1-carbonyl]piperidin-3-yl}methanesulfonamide]
98	CCS(=O)(=O)NC1COCCN(C(=O)[C@@H]2C[C@H]2c2ccccc2-c2c(F)cccc2F)C1 (mixture of isomers) [Example 257]
89	O=C([C@@H]1C[C@H]1c1ccccc1-c1c(F)cccc1F)N1CC[C@H](NS(=O)(=O)N2CCC2)C1 [Example 326, N-{(3S)-1-[(1R,2R)-2-(2′,6′-difluoro[1,1′-biphenyl]-2-yl)cyclopropane-1-carbonyl]pyrrolidin-3-yl}azetidine-1-sulfonamide]
81	CS(=O)(=O)NC1CCCN(C(=O)C2CC2c2ccccc2-c2ccccc2F)C1 (racemic) [Example 72, a mixture of rac-N-{(3R)-1-[(1R,2R)-2-(2′-fluoro[1,1′-biphenyl]-2-yl)cyclopropane-1-carbonyl]piperidin-3-yl}methanesulfonamide and rac-N-{(3S)-1-[(1R,2R)-2-(2′-fluoro[1,1′-biphenyl]-2-yl)cyclopropane-1-carbonyl]piperidin-3-yl}methanesulfonamide]
